The record followed here is patent publication US6211425A, “Patch” (Saitama Daiichi Seiyaku Kabushiki Kaisha, priority 1996, dated 2001).

Entries after “also recorded” stand apart in the source; their conditions may differ.

Data set [1] can be described thus: percutaneous absorption of formoterol (finding of the inventors). The conditions noted are these: formoterol and/or salts thereof not in a dissolved state.
A short description of data set [2]: hydrolytic stability of formoterol (general statement). The settings on record: preparations having high water contents. It counts as physicochemical.

`COc1ccc(CC(C)NCC(O)c2ccc(O)c(NC=O)c2)cc1` (centres unmarked) [formoterol]: the percutaneous absorption entry in data set [1] is reported as “extremely poor percutaneous absorption”. Moreover, the hydrolysis entry in data set [2] is on record as “hydrolyzed; also recorded: easily hydrolyzable”.
